Tests used:
[1] = molecular target: P-gp (Homo sapiens, UniProt P08183); conditions: cited from earlier work
[2] = tested on: healthy patient derived epithelial cell cultures (HSNECCs); experiment: Quantitative fluorescent immunocytochemistry for membranous P-gp (CTCF) after recombinant P-gp exposure; type: cell-based, human; conditions: 24 hours
Experimental: (§1) HSNECCs from 7 control patients and 6 CRS patients were grown as previously described^8. Briefly, mucosal samples were washed and digested in Pronase for 90 minutes at 37° C. Cell suspensions were separated from particulate matter by centrifugation and resuspended in bronchial epithelial growth media (BEGM). Cells were plated for 2 hours on standard tissue culture plates to remove contaminating fibroblasts. Cells were then expanded for 3-5 days on human collagen type IV-coated (Collagen from human placenta, Bornstein and Traub Type IV, Sigma Aldrich, St. Louis, Mo.) 75 cm^2 dishes (Corning Life Sciences, Corning, N.Y.). […]
Fluorescent staining intensity was quantified according to previously described techniques^9. Briefly, 20× fields were chosen and images were analyzed in Image J v1.49t. The cells and 3 background areas were circled in Image J using the free hand sections tool and the integrated density, area of selected cell, and mean fluorescence of the backgrounds were measured using the region of interest (ROI) manager. The corrected total cell fluorescence (CTCF) was calculated as the integrated density−(area of selected cell×mean fluorescence of background readings). […]

[3] = tested on: healthy patient derived epithelial cell cultures (HSNECCs); experiment: Calcein AM P-glycoprotein activity assay after recombinant P-gp exposure; type: cell-based, human; conditions: 24 hours, n=7
Experimental: as §1
A calcein AM assay was performed to determine whether the interpolated P-gp was functional following 24 hours of recombinant P-gp exposure as described above. […] After 15 minutes, each well was washed 3 times with cold phosphate buffered saline and the calcein fluorescence within each well was quantified using a spectrophotometer (Molecular Devices SpectraMax M5, Sunnyvale, Calif.) at an excitation and emission wavelength of 494 nm and 517 nm, respectively. A decrease in fluorescence was considered an indication of increased P-gp function as previously described^4.

[4] = tested on: HSNECCs; experiment: Epithelial cytokine secretion (IL-6, IL-8, TSLP) by ELISA after exosome exposure with or without Zosuquidar; type: cell-based, human; conditions: 0.625 μM Zosuquidar, CRSwNP relative to control
Experimental: Control wells were those exposed to vehicle control alone. Following exposure, the media was collected from each well. Cytokine concentrations for TSLP (Thymic Stromal Derived Lymphopoietin), Interleukin (IL)-6, and IL-8 were determined by ELISA according to the manufactures guidelines (eBioscience, San Diego, Calif.). All secreted cytokine concentrations were normalized to total protein concentrations using the Micro BCA Protein Assay Kit (Pierce, Rockford, Ill.).

P-gp, sequence (P08183 whole entry): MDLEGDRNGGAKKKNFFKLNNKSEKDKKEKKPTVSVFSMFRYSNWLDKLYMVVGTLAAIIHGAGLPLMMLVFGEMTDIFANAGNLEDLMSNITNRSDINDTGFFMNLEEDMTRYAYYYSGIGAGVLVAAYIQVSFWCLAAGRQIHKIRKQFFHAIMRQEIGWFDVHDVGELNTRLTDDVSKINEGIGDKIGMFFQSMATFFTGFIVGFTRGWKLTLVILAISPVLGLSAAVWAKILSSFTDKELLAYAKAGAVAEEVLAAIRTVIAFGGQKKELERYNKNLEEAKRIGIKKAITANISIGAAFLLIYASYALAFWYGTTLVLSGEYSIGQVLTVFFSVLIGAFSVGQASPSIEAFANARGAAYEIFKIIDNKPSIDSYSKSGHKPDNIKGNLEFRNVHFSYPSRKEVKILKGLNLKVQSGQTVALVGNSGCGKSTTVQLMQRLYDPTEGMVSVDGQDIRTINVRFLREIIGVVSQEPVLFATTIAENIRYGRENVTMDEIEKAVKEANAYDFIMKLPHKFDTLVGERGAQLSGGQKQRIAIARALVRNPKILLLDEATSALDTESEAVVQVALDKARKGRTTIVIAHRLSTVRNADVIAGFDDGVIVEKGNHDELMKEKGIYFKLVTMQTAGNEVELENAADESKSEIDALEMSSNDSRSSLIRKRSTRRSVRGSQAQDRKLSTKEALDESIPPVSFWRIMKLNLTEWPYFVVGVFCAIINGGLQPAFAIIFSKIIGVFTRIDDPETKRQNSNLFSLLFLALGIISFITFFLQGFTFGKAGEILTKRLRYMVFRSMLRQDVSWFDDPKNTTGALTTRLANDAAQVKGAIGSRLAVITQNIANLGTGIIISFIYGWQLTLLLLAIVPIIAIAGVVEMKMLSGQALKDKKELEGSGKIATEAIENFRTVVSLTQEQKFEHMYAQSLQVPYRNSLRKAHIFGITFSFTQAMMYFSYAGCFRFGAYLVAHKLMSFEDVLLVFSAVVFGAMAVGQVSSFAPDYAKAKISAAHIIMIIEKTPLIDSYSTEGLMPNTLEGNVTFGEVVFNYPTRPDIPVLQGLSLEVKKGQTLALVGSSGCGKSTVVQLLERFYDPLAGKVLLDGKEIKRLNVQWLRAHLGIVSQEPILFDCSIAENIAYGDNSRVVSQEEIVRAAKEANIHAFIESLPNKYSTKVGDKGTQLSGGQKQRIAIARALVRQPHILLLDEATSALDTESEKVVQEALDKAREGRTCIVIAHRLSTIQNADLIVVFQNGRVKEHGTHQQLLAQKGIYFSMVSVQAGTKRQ

In the case of CCOC/C=C/c1ccc(-c2nc(-c3ccc(NC(C)C)cc3)c(-c3ccc(NC(C)C)cc3)[nH]2)cc1 [OC144093, 4-[2-[4-[(E)-3-ethoxyprop-1-enyl]phenyl]-4-[4-(propan-2-ylamino)phenyl]-1H-imidazol-5-yl]-N-propan-2-ylaniline], the “potency relative to the first and second-generation inhibitors” value [1] is listed as “about 10 fold”.
For COc1cc2c(cc1OC)CN(CCc1ccc(NC(=O)c3cc(OC)c(OC)cc3NC(=O)c3cnc4ccccc4c3)cc1)CC2 [XR9576, N-[2-[[4-[2-(6,7-Dimethoxy-3,4-dihydro-1H-isoquinolin-2-yl)ethyl]phenyl]carbamoyl]-4,5-dimethoxyphenyl]quinoline-3-carboxamide], the “potency relative to the first and second-generation inhibitors” value [1] is listed as “about 10 fold”.
With “recombinant human P-gp: recombinant human P-glycoprotein (USCN Life Sciences Inc.)” the “CTCF (corrected total cell fluorescence) of P-gp staining” value ([2]; 2000 ng/mL recombinant human P-gp, n=7) was 1.34+/−1.85, the “change in CTCF of P-gp staining” value ([2]; 100-2000 ng/mL exogenous recombinant human P-gp) was “dose dependent increase” and the mean calcein fluorescence ([3]; 100 ng/mL dose) was 123.11+/−42.16. For the same molecule, the mean calcein fluorescence ([3]; 2000 ng/mL dose) was 82.03+/−43.69.
For Cl.Cl.Cl.O[C@@H](COc1cccc2ncccc12)CN1CCN([C@@H]2c3ccccc3[C@@H]3[C@H](c4ccccc42)C3(F)F)CC1 [Zosuquidar, (2R)-1-{4-[(1aR,6r,10bS)-1,1-Difluoro-1,1a,6,10b-tetrahydrodibenzo[a,e]cyclopropa[c]cyclohepten-6-yl]piperazin-1-yl}-3-(quinolin-5-yloxy)propan-2-ol,trihydrochloride], the “effect on exosome induced increase in IL-6 secretion” value [4] was “abrogated” and the “effect on exosome induced increase in IL-8 secretion” value [4] was “abrogated”.
